Reference: patent publication US20260242359A1, “IRHOM2 INHIBITORS AND USES THEREOF” (NEW YORK SOCIETY FOR THE RELIEF OF THE RUPTURED AND …, priority 2023, published 2026)

Columns and labels:
[1] = system: TNFα release from LPS-stimulated THP-1 cells (iRhom2/ADAM17-dependent); experiment: Primary screen (Example 1b): LPS-stimulated TNFα release from THP-1 cells, HTRF; format: cell-based; conditions: Homo sapiens, overnight pre-incubation, LPS 100 ng/mL, 3 h, normalized against 10 μM Batimastat
Protocol: (§1) Two separate screens to identify novel small molecule inhibitors of iRhom2/ADAM17 activity were developed. […] Therefore, the primary screen for small molecule inhibitors of iRhom2/ADAM17 was a screen for inhibitors that blocked the release of TNFα from LPS-stimulated THP-1 human myeloid cells, a process that depends on iRhom2 and ADAM17. Since the release of TNFα from THP-1 cells can be blocked at many stages of the LPS/TLR4/iRhom2/ADAM17 pathway, a secondary screen was performed for another iRhom2/ADAM17 selective substrate, Kit-ligand 2 (KL-2) (Maretzky T et al. (July 2013), “iRhom2 controls the substrate selectivity of stimulated ADAM17-dependent ectodomain shedding”, PNAS 110(28): 11433-11438) in a different human cell type, human embryonic kidney cells (HEK 293).
THP-1 cells were plated in low volume 384 wells (10,000 cells per well in 12.6 μL RPMI medium) together with inhibitors or 10 μM BB94 and incubated over night. The next day, TNFα shedding was initiated by stimulation of THP-1 cells with 100 ng/mL LPS (1.8 μL of an 800 ng/mL LPS stock) for 3 hrs at 37° C. The extent of released TNFα was detected with the corresponding HTRF antibodies labeled with europium cryptate (donor) and d2 (acceptor). The HTRF signal was generated by proximity of europium cryptate and d2. All detection reagents were purchased from Cisbio. TNFα detection was performed according to the manufacturer's protocol (Product Insert for Cisbio TNFα (h) Kit Part #62HTNFAPEG & 62HTNFAPEH; https://www.cisbio.com/media/asset/c/i/cisbio_dd_pi_62htnfapeg-62htnfapeh.pdf, accessed Sep. 28, 2020).
Low volume 384 well plates were pre-coated with small molecule library compounds for a final concentration of 20 μM in a 15 μL reaction, or 0.75 μL of 200 μM stock of BB94 in 5% DMSO (final concentration 0.25%). 12.6 μL of cell suspension [8E5/mL; 10,000 cells/well; culture RPMI medium] and pre-incubated at 37° C., 5% CO2, over night. The next day, 1.8 μL of an 800 ng/mL LPS stock was added [final concentration 100 ng/mL in 15 μL assay] and the cells were incubated at 37° C., 5% CO2, for 3 h. Subsequently, 3 μL of the HTRF-mix [used at 1:3 dilution of cisbio HTRF human TNF] was added and the plates were incubated for an additional 2 hrs at 25° C. After an incubation at room temperature for 2 h, the HTRF readout was performed. Then data evaluation for normalization against the 10 μM Batimastat control (=100% […]) was applied.

[2] = system: PMA-stimulated KL2 release from HEK-293 cells (iRhom2/ADAM17 selective substrate); experiment: Secondary screen (Example 3b): PMA-stimulated KL2 release from HEK-293 cells, AP readout; format: cell-based; conditions: Homo sapiens, HEK293, HEK-293 cells expressing KL2-AP, PMA 100 ng/mL, 2 h, read-out: Secondary Screen IC50 KitL2
Protocol: as §1
Expression plasmids for alkaline phosphatase (AP)-fused human KL2 and TGFα had been previously designed and generated through gene synthesis followed by subcloning into the pcDNA3.1(+)/Hygro expression vector. […] Subsequently, DNA amplifications were performed to obtain sufficient amounts of the expression vectors. The quality of DNA and gene sequences were confirmed through restriction digest and Sanger sequencing. In parallel, cell culture of HEK-293 cells was initiated. Master and working cell banks were prepared, scaled up and transfected with the respective constructs by electroporation. During cell culturing, cell density and viability were monitored to ensure optimal conditions for the transfections. After PMA stimulation, AP-coupled KL2 or TGFα were detected by measurement of AP activity in the supernatant.
After electroporation, cells were further cultured in presence of selection antibiotics, hygromycin B, to generate stably transfected polyclonal cell pools. For both assays, KL2 and TGFα shedding, the respective selected pool turned out to be suitable. Final assay conditions were determined for the selected pools. For all experiments, batimastat (BB94, 10 μM) was used as positive control for full inhibition of KL2 or TGFα shedding.
The wells of sterile 384-well flat bottom clear plates for KL2-AP assays were coated with 10 μL of 0.1 mg/mL poly-d-lysine for 3-4 hr at 25° C. or overnight at 4° C., then washed 2× with PBS and patted dry. 60 μL of cells (40,000/well) were added to the sterile 384-well plate and incubated in Optimem (with 2% FCS and 1% Pen-strep) overnight at 37° C. (5% CO2). After incubation overnight, 55 μL medium were removed with a BioTek EL406 and 10 μL of prediluted compounds were added to the cells for a final concentration of 20 μM. After incubation for 15 min, 15 μL of PMA (100 ng/mL final conc.) were added. The cells were incubated for 2 h at 37° C. (5% CO2). Then, the plates were centrifuged for 5 min at 1000 rpm and 3 μL of the supernatant was transferred to a fresh 384 well plate and 9 μL of AP Balance Buffer was added per well. 12 μL of pNPP p-nitrophenyl phosphate (final 1 M pNPP) was added. AP reaction was performed for 1 h at 37° C. The reaction was stopped by addition of 12 μL of NaOH (1 M final conc.), the plates were centrifuged to remove air bubbles and the absorbance of pNP was measured at 405 nm.

## O=C(c1c(Cl)cccc1Cl)N1CCC(Cc2ccc(F)cc2)CC1 [Compound 3]
[1]
  IC50: < 0.0625 µM
[2]
  IC50: > 40 µM

## Cc1c(C(=O)NCc2cccs2)sc(=O)n1Cc1ccccc1 [Compound 4]
[1]
  IC50: 7.57 µM
[2]
  IC50: > 40 µM

## Cc1c(C(=O)NCc2cccs2)sc(=O)n1Cc1ccccc1F [Compound 5]
[1]
  IC50: 5.21 µM
[2]
  IC50: > 40 µM

## Cc1c(C(=O)NCc2ccco2)sc(=O)n1Cc1ccccc1F [Compound 7]
[1]
  IC50: 3.93 µM
[2]
  IC50: 22 µM
